From patent publication EP4722228A1, “NEW COMPOUND TARGETING MUSK AND USE THEREOF” (The University of Tokyo, priority 2023, dated 2024)
Bridge positions count the residues as written; N and C are the ends. Square brackets hold non-standard residues; d marks the D form. Peptide text beside a SMILES is read from it. I, II: the chains in the order shown. * marks the point of attachment. Palmitoyl = CCCCCCCCCCCCCCCC(=O)*; PEG3 = NCCOCCOCCOCCC(=O)O; Dap = NC[C@H](N)C(=O)O

Biological target: T1, human MuSK (Homo sapiens, UniProt O15146)
T1 construct: DNA corresponding to the extracellular portion (amino acids 1-493) was amplified by a PCR method; made in house; host or cells: Expi293F cells
T1 sequence (O15146 24-493): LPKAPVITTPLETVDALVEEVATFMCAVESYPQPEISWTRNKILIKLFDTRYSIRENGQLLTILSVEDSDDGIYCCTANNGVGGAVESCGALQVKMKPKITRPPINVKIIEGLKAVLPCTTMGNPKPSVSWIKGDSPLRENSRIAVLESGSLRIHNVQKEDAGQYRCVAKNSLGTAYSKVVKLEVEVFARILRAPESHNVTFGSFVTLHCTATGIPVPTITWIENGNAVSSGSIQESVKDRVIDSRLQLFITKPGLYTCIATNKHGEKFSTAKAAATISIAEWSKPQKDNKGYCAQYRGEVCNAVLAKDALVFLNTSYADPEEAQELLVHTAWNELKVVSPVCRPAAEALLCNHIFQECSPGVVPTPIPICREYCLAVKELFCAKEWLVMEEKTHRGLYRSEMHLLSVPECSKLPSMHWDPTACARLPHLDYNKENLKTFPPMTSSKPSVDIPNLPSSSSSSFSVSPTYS
Experiment: SPR binding activity test to human MuSK (Biacore)
Conditions: Table 5, read-out: Binding activity (KD) (nM) Human
How it was run: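 Extracellular domain (aa 1-493) of human MuSK, expressed as an Fc fusion in Expi293F cells, was captured on Protein G or A chips. Analytes were injected as concentration series in phosphate-buffered saline with 0.05% Tween 20, plus 0.1% DMSO for peptides. ka, kd and KD were obtained from 1:1 binding fits.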

Kd: 0.9 nM
Compound: CCCCCCCCCCCCCCCC(=O)NCCCC[C@H](NC(=O)[C@H](CNC(=O)CCOCCOCCOCCNC(=O)CNC(=O)[C@@H]1CSCC(=O)N[C@H](Cc2ccc(O)cc2)C(=O)N2CCC[C@H]2C(=O)N[C@@H](CO)C(=O)N[C@@H](Cc2ccc(O)cc2)C(=O)N[C@@H](Cc2c[nH]cn2)C(=O)N[C@@H]([C@@H](C)O)C(=O)N[C@@H](CC(N)=O)C(=O)N[C@@H](C(C)C)C(=O)N[C@@H](C(C)C)C(=O)N[C@@H](C)C(=O)N[C@@H](CO)C(=O)N[C@@H](CC(C)C)C(=O)N[C@@H](CCCCN)C(=O)N[C@@H](CCCNC(=N)N)C(=O)N1)NC(=O)CCOCCOCCOCCNC(=O)CNC(=O)[C@@H]1CSCC(=O)N[C@H](Cc2ccc(O)cc2)C(=O)N2CCC[C@H]2C(=O)N[C@@H](CO)C(=O)N[C@@H](Cc2ccc(O)cc2)C(=O)N[C@@H](Cc2c[nH]cn2)C(=O)N[C@@H]([C@@H](C)O)C(=O)N[C@@H](CC(N)=O)C(=O)N[C@@H](C(C)C)C(=O)N[C@@H](C(C)C)C(=O)N[C@@H](C)C(=O)N[C@@H](CO)C(=O)N[C@@H](CC(C)C)C(=O)N[C@@H](CCCCN)C(=O)N[C@@H](CCCNC(=N)N)C(=O)N1)C(N)=O [MuSK7-pal] (I: {CH2CO}-[dY]PSYHTNVVASLKRCG[PEG3][Dap]K(Palmitoyl)-NH2 / II: {CH2CO}-[dY]PSYHTNVVASLKRCG[PEG3]; amide I:18-II:C; thioether I:N-I:15, II:N-II:15)
